Laboratory results reported in patent US9505762B2, “Purine derivatives as CB2 receptor agonists” (Hoffmann-La Roche Inc., priority 2013, dated 2016).

Key:
[1] = target: human CB1 receptors (Homo sapiens (Human), UniProt P21554); experiment: functional cAMP assay, CB1; type: cell-based; conditions: CHO cells expressing human CB1
Description: (§1) The growth medium was exchanged with Krebs Ringer Bicarbonate buffer with 1 mM IBMX and incubated at 30° C. for 30 min. Compounds were added to a final assay volume of 100 μl and incubated for 30 min at 30° C. Using the cAMP-Nano-TRF detection kit the assay (Roche Diagnostics) was stopped by the addition of 50 μl lysis reagent (Tris, NaCl, 1.5% Triton X100, 2.5% NP40, 10% NaN3) and 50 μl detection solutions (20 μM mAb Alexa700-cAMP 1:1, and 48 μM Ruthenium-2-AHA-cAMP) and shaken for 2 h at room temperature. The time-resolved energy transfer is measured by a TRF reader (Evotec Technologies GmbH), equipped with a ND:YAG laser as excitation source. The plate is measured twice with the excitation at 355 nm and at the emission with a delay of 100 ns and a gate of 100 ns, total exposure time 10 s at 730 (bandwidth 30 nm) or 645 nm (bandwidth 75 nm), respectively.
(§2) EC50 values were determined using Activity Base analysis (ID Business Solution, Limited).

[2] = target: human CB2 receptors (Homo sapiens (Human), UniProt P34972); experiment: functional cAMP assay, CB2; type: cell-based; conditions: CHO cells expressing human CB2
Chain of human CB2 receptors (P34972 whole entry): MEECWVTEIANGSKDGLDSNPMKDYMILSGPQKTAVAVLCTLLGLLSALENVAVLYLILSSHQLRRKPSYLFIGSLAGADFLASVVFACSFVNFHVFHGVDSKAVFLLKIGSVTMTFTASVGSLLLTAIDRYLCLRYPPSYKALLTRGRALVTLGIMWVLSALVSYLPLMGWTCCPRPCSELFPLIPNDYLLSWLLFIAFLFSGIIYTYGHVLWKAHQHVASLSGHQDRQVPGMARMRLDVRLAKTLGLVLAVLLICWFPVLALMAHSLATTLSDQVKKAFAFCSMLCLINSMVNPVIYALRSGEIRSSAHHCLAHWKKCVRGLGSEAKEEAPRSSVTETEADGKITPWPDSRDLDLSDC
Description: as §1, §2

Chain of human CB1 receptors (P21554 whole entry): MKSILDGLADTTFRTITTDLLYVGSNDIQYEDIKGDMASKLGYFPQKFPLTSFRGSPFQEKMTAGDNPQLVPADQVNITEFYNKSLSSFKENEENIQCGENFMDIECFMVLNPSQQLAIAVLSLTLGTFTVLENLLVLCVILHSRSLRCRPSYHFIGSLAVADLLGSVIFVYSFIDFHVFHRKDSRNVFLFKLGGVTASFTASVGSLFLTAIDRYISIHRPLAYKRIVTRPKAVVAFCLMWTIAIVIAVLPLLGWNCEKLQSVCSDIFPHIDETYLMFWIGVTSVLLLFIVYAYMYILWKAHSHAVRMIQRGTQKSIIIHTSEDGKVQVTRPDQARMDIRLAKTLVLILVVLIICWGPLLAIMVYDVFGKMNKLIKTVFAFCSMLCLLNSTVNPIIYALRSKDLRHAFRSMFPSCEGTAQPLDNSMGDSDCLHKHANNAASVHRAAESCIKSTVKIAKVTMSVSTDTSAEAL

| Compound | EC50 [1] [µM] | EC50 [2] [µM] |
| --- | --- | --- |
| CC(C)(C)c1nc(N2CC[C@H](O)C2)c2ncn(Cc3c[nH]nc3C(F)(F)F)c2n1 [Example 98, (3S)-1-[2-tert-butyl-9-[[3-(trifluoromethyl)-1H-pyrazol-4-yl]methyl]purin-6-yl]pyrrolidin-3-ol] | > 10 | 0.0223 |
| CC(C)(C)c1nc(N2CCC(F)(F)C2)c2ncn(Cc3ccc(Cl)cc3)c2n1 [Example 1, 2-Tert-Butyl-9-[(4-Chlorophenyl)Methyl]-6-(3,3-Difluoropyrrolidin-1-Yl)Purine] | > 10 | 0.0116 |
| CC(C)(C)c1nc(N2CC[C@H](O)C2)c2ncn(Cc3n[nH]cc3C(F)(F)F)c2n1 [Example 100, (3S)-1-[2-tert-butyl-9-[[4-(trifluoromethyl)-1H-pyrazol-3-yl]methyl]purin-6-yl]pyrrolidin-3-ol] | > 10 | 0.0066 |
| CC1(O)CCN(c2nc(C(C)(C)C)nc3c2ncn3Cc2ncccc2Cl)C1 (centres unmarked) [Example 69, 1-[2-tert-butyl-9-[(3-chloropyridin-2-yl)methyl]purin-6-yl]-3-methylpyrrolidin-3-ol] | > 10 | 0.0468 |
| CC(C)n1nnnc1Cn1cnc2c(N3CC[C@H](O)C3)nc(C(C)(C)C)nc21 [Example 155, (3S)-1-[2-tert-butyl-9-[(1-propan-2-yltetrazol-5-yl)methyl]purin-6-yl]pyrrolidin-3-ol] | > 10 | 0.0823 |
| CC(C)(C)COc1nc(N2CCC(C)(O)C2)c2ncn(Cc3ncccc3Cl)c2n1 (centres unmarked) [Example 134, 1-[9-[(3-chloropyridin-2-yl)methyl]-2-(2,2-dimethylpropoxy)purin-6-yl]-3-methylpyrrolidin-3-ol] | > 10 | 0.178 |
| CC(C)(C)Nc1nc(N2CCC(F)(F)C2)c2ncn(CCC(F)(F)F)c2n1 [Example 110, N-tert-butyl-6-(3,3-difluoropyrrolidin-1-yl)-9-(3,3,3-trifluoropropyl)purin-2-amine] | > 10 | 0.0183 |
| CC(C)(C)c1nc(N2CC[C@H](O)[C@H]2CO)c2ncn(Cc3ncccc3Cl)c2n1 [Example 159, (2R,3S)-1-[2-tert-butyl-9-[(3-chloropyridin-2-yl)methyl]purin-6-yl]-2-(hydroxymethyl)pyrrolidin-3-ol] | > 10 | 0.591 |
| CC(C)(C)c1nc(N2CC(F)(F)C(F)(F)C2)c2ncn(Cc3ccccc3S(C)(=O)=O)c2n1 [Example 106, 2-tert-butyl-9-[(2-methylsulfonylphenyl)methyl]-6-(3,3,4,4-tetrafluoropyrrolidin-1-yl)purine] | > 10 | 0.0399 |
| COc1ccc(Cn2cnc3c(N4CCC(O)C4)nc(C(C)(C)C)nc32)cc1 (centres unmarked) [Example 31, 1-[2-tert-butyl-9-[(4-methoxyphenyl)methyl]purin-6-yl]pyrrolidin-3-ol] | > 10 | 0.0214 |
| CC(C)(C)c1nc(N2CC[C@H](O)C2)c2ncn(Cc3cccc(Cl)c3)c2n1 [Example 87, (3S)-1-[2-tert-butyl-9-[(3-chlorophenyl)methyl]purin-6-yl]pyrrolidin-3-ol] | > 10 | 0.0021 |
| COCCn1cnc2c(N3CC(F)(F)C(F)(F)C3)nc(C(C)(C)C)nc21 [Example 83, 2-tert-butyl-9-(2-methoxyethyl)-6-(3,3,4,4-tetrafluoropyrrolidin-1-yl)purine] | > 10 | 0.0646 |
| Cc1nonc1Cn1cnc2c(N3CCC(F)(F)C3)nc(C(C)(C)C)nc21 [Example 16, 3-[[2-tert-butyl-6-(3,3-difluoropyrrolidin-1-yl)purin-9-yl]methyl]-4-methyl-1,2,5-oxadiazole] | > 10 | 0.006 |
| Cc1nonc1Cn1cnc2c(N3CCC[C@@H]3C#N)nc(C(C)(C)C)nc21 [Example 148, (2R)-1-[2-tert-butyl-9-[(4-methyl-1,2,5-oxadiazol-3-yl)methyl]purin-6-yl]pyrrolidine-2-carbonitrile] | > 10 | 0.0157 |
| CC(C)(C)c1nc(N2CC[C@H](O)C2)c2ncn(Cc3cccnc3Cl)c2n1 [Example 91, (3S)-1-[2-tert-butyl-9-[(2-chloropyridin-3-yl)methyl]purin-6-yl]pyrrolidin-3-ol] | > 10 | 0.0017 |
| CC(C)(C)COc1nc(N2CCC(C)(O)C2)c2ncn(Cc3ccccc3S(C)(=O)=O)c2n1 (centres unmarked) [Example 133, 1-[2-(2,2-dimethylpropoxy)-9-[(2-methylsulfonylphenyl)methyl]purin-6-yl]-3-methylpyrrolidin-3-ol] | > 10 | 0.149 |
| CC(C)(C)c1nc(N2CCC3(COC3)C2)c2ncn(Cc3n[nH]cc3C(F)(F)F)c2n1 [Example 78, 7-[2-tert-butyl-9-[[4-(trifluoromethyl)-1H-pyrazol-3-yl]methyl]purin-6-yl]-2-oxa-7-azaspiro[3.4]octane] | > 10 | 0.0175 |

| Compound | EC50 [1] [µM] | EC50 [2] [µM] |
| --- | --- | --- |
| CC(C)(C)COc1nc(N2CCC(F)(F)C2)c2nc[nH]c2n1 [Example 151, 6-(3,3-difluoropyrrolidin-1-yl)-2-(2,2-dimethylpropoxy)-9H-purine] | > 10 | 0.0287 |
| Cc1ccc(Cn2cnc3c(N4CCC(O)C4)nc(C(C)(C)C)nc32)cc1 (centres unmarked) [Example 39, 1-[2-tert-butyl-9-[(4-methylphenyl)methyl]purin-6-yl]pyrrolidin-3-ol] | > 10 | 0.0169 |
| CC(C)(C)c1nc(N2CCC3(COC3)C2)c2ncn(Cc3ccccc3S(C)(=O)=O)c2n1 [Example 60, 7-[2-tert-butyl-9-[(2-methylsulfonylphenyl)methyl]purin-6-yl]-2-oxa-7-azaspiro[3.4]octane] | > 10 | 0.175 |
| CC(C)(C)c1nc(N2CCC(F)(F)C2)c2ncn(CC3CCCCC3)c2n1 [Example 8, 2-tert-butyl-9-(cyclohexylmethyl)-6-(3,3-difluoropyrrolidin-1-yl)purine] | > 10 | 0.0753 |
| CC(C)(C)c1nc(N2CC(F)(F)C(F)(F)C2)c2ncn(Cc3ccccc3C(F)(F)F)c2n1 [Example 105, 2-tert-butyl-6-(3,3,4,4-tetrafluoropyrrolidin-1-yl)-9-[[2-(trifluoromethyl)phenyl]methyl]purine] | > 10 | 0.0089 |
| CC(C)(C)c1nc(N2CCC[C@@H]2CO)c2ncn(Cc3ncccc3Cl)c2n1 [Example 157, [(2R)-1-[2-tert-Butyl-9-[(3-chloropyridin-2-yl)methyl]purin-6-yl]pyrrolidin-2-yl]methanol] | > 10 | 0.0043 |
| CC(C)(C)COc1nc(N2CCC(F)(F)C2)c2ncn(Cc3ccccc3Cl)c2n1 [Example 124, 9-[(2-chlorophenyl)methyl]-6-(3,3-difluoropyrrolidin-1-yl)-2-(2,2-dimethylpropoxy) purine] | > 10 | 0.0027 |
| CC(C)(C)Nc1nc(N2CC3(COC3)C2)c2ncn(Cc3ccccc3Cl)c2n1 [Example 138, N-tert-butyl-9-[(2-chlorophenyl)methyl]-6-(2-oxa-6-azaspiro[3.3]heptan-6-yl)purin-2-amine] | > 10 | 0.0781 |
| CC(C)(C)c1nc(N2CC[C@H](O)C2)c2ncn(Cc3ccccc3C(F)(F)F)c2n1 [Example 86, (3S)-1-[2-tert-butyl-9-[[2-(trifluoromethyl)phenyl]methyl]purin-6-yl]pyrrolidin-3-ol] | > 10 | 0.0011 |
| COCCn1cnc2c(N3CC[C@H](O)C3)nc(C(C)(C)C)nc21 [Example 94, (3S)-1-[2-tert-butyl-9-(2-methoxyethyl)purin-6-yl]pyrrolidin-3-ol] | > 10 | 0.44 |
| CC(C)(C)c1nc(N2CC[C@H](O)C2)c2ncn(Cc3ncccc3Cl)c2n1 [Example 92, (3S)-1-[2-tert-butyl-9-[(3-chloropyridin-2-yl)methyl]purin-6-yl]pyrrolidin-3-ol] | > 10 | 0.0084 |
| CC(C)(C)c1nc(N2CCC(O)C2)c2ncn(Cc3ccccc3S(C)(=O)=O)c2n1 (centres unmarked) [Example 34, 1-[2-tert-butyl-9-[(2-methylsulfonylphenyl)methyl]purin-6-yl]pyrrolidin-3-ol] | > 10 | 0.009 |
| CC1(O)CCN(c2nc(C(C)(C)C)nc3c2ncn3Cc2ccccc2S(C)(=O)=O)C1 (centres unmarked) [Example 74, 1-[2-tert-butyl-9-[(2-methylsulfonylphenyl)methyl]purin-6-yl]-3-methylpyrrolidin-3-ol] | > 10 | 0.0884 |
| CC(C)(C)c1nc(N2CCC[C@@H]2C#N)c2ncn(Cc3nnnn3C3CC3)c2n1 [Example 147, (2R)-1-[2-tert-butyl-9-[(1-cyclopropyltetrazol-5-yl)methyl]purin-6-yl]pyrrolidine-2-carbonitrile] | > 10 | 0.176 |
| CCn1cnc2c(N3CCC(O)C3)nc(C(C)(C)C)nc21 (centres unmarked) [Example 35, 1-(2-tert-butyl-9-ethylpurin-6-yl)pyrrolidin-3-ol] | > 10 | 0.432 |
| CC(C)(C)c1nc(N2CC(O)(C(F)(F)F)C2)c2ncn(Cc3ncccc3Cl)c2n1 [Example 167, 1-[2-tert-butyl-9-[(3-chloropyridin-2-yl)methyl]purin-6-yl]-3-(trifluoromethyl)azetidin-3-ol] | > 10 | 0.035 |
| CC(C)(C)c1nc(N2CCC(F)(F)C2)c2ncn(CCc3cccnc3)c2n1 [Example 23, 2-tert-butyl-6-(3,3-difluoropyrrolidin-1-yl)-9-(2-pyridin-3-ylethyl)purine] | > 10 | 0.0044 |
